Assay results as given in patent US20260294846A1, “COMPOSITIONS AND METHODS FOR TREATING VULVAR AND VAGINAL ATROPHY (VVA)” (Daré Bioscience, Inc., priority 2023, published 2026).
“Also recorded” adds a separate entry of the source.

Tests used:
[1] = more potent than tamoxifen; cited from earlier work
[2] = Systemic plasma pharmacokinetics of tamoxifen and metabolites after intravaginal DARE-VVA1; parameters: species or system human (women); settings: human, in vivo, 20 mg
Description: In each treatment group, participants will have serial blood sampling for PK analysis, with venous samples drawn from an indwelling line. Dense sampling will be performed following the Day 1 and Day 56 administrations of a tamoxifen vaginal insert; trough samples will be collected prior to dosing on Days 4, 7, 10, 18, 28, and 42, and a final sample will be collected at follow-up on Day 63. Samples will be analyzed using validated methods to determine plasma concentrations of tamoxifen and 3 metabolites: 4-hydroxytamoxifen, N-desmethyl-tamoxifen, and N-desmethyl-4-hydroxytamoxifen (endoxifen). […]
Samples will be analyzed using validated methods to determine plasma concentrations of tamoxifen and 3 metabolites: 4-hydroxytamoxifen, N-desmethyltamoxifen, and N-desmethyl-4-hydroxytamoxifen (endoxifen).
The PK characterization of tamoxifen concentrations for each dose to be profiled will use noncompartmental analysis (NCA). […] Standard PK parameters assessed will include measures of the extent of absorption using estimates of the area under the plasma concentration-time curve (AUC), the maximum observed drug concentration (Cmax), and the time to reach maximum drug concentration (Tmax). […]

[3] = test system: vagina; test: Vaginal pH; assay type: in vivo, human (women)
Description: Estrogenic effect measurements will include vaginal cytology (maturation index; percentage of basal and superficial cells) and vaginal pH at screening and baseline, every 2 weeks during treatment, and 1 week after treatment.
Vaginal swabs for determination of pH will be collected in accordance with the schedule of events (Table 4). The pH of vaginal secretions will be measured using pH paper.
Local estrogenic effect measurements included obtaining vaginal epithelial cells from the lateral vaginal sidewall and determining the VMI. The VMI is determined by categorizing the ratio (proportion in 100 cells) of the three types of vaginal epithelial cell types (parabasal, intermediate and superficial). A total VMI score was calculated as: % superficial cells+(0.5 x% intermediate cells)+(0 x % parabasal cells). The VMI and vaginal pH were measured at screening and baseline, and subsequently every 2 weeks during treatment and 1 week after treatment.

[4] = test system: female New Zealand White rabbits (vagina, uterus, ovary); test: Study 3015-012: 12-week intravaginal toxicity of tamoxifen in rabbits; assay type: in vivo, rabbit (New Zealand White)
Description: (§1) Tamoxifen is a selective estrogen receptor modulator (SERM) which has species and tissue specific estrogen agonist and antagonist properties. Given orally in women, tamoxifen has estrogen antagonist activity in breast tissue and estrogen agonist effects in the endometrium and vagina. When administered vaginally in women, there is reduced systemic exposure leading to reduced systemic side effects. The objective of this pre-clinical study was to test the safety, pharmacokinetics (PK) and toxicity of vaginal tamoxifen over a 3 and 9 month treatment period in female New Zealand White rabbits.
(§2) All animal studies were conducted under IACUC approvals. In study 3015-012, at Charles River Labs (Mattawan, MI, USA), 45 female rabbits were randomly assigned to either sham (saline), placebo, or 5, 10 or 20 mg/kg/dose of vaginal tamoxifen. Investigational product (IP) was administered intravaginally once daily for 14 days, then twice weekly for up to 10 weeks with necropsy at 12-weeks. In study 858-0032-TX, conducted at WuXi AppTec (Suzhou, Jiangsu, China), 40 female rabbits were randomly assigned to sham (saline), placebo, or 10 or 30 mg/kg/dose of vaginal tamoxifen. IP was administered daily for 14 days and then twice weekly. An interim necropsy was performed at 26-weeks and then at 39-weeks.

[5] = test system: female New Zealand White rabbits (vagina, uterus, ovary); test: Study 858-0032-TX: 26/39-week intravaginal toxicity of tamoxifen in rabbits; assay type: in vivo, rabbit (New Zealand White)
Description: as §1, §2

[6] = cited from earlier work
[7] = test system: endometrium; settings: cited from earlier work
[8] = 20 mg/kg/day, 12 weeks, cranial and mid vagina
[9] = 20 mg/kg/day, 12 weeks, intravaginal
[10] = postmenopausal women, daily oral tamoxifen at least 4 years

## 4-hydroxytamoxifen [4-OHT]
[1]
  Potency relative to tamoxifen: approximately 100 ×

## CC/C(=C(\c1ccccc1)c1ccc(OCCN(C)C)cc1)c1ccccc1 [tamoxifen, 1-(p-dimethylamino-ethoxphenyl)-2-ethyl-1,2-diphenylethylene]
[2]; Day 10, read-out: Single maximum plasma tamoxifen concentration
  Cmax at 240 h: 12 ng/mL
[2]; Day 10 trough, read-out: Plasma tamoxifen, median
  concentration at 240 h: 8.29 ng/mL
[3]; 10 mg and 20 mg, 8-week treatment
  Improvement in vaginal pH: most improvement in vaginal pH
[3]; all active doses combined, Day 56
  Change in vaginal pH, baseline to end of treatment: statistically significant decreases in vaginal pH
[3]; end of treatment
  Median end of treatment vaginal pH levels, range: 5.0-5.3
[4]; 20 mg dose, 12 weeks
  Adverse effects: no observed adverse effects
[4]; [8]
  Vagina microscopy, atrophy: minimal to mild diffuse atrophy; also recorded: diffuse vaginal atrophy
  Vagina microscopy, inflammatory cell infiltration: increased incidence and/or severity of minimal to mild mixed inflammatory cell infiltration; also recorded: increased incidence of vaginal mixed inflammatory cell infiltrates
[4]; [9]
  Ovary microscopy: atrophy of interstitial glands; also recorded: increased incidence of ovarian interstitial gland atrophy with decreased weights
  Paired ovary weights: decreases in the mean weights (absolute and relative to terminal body weight)
  Uterus/cervix weights: decreases in the mean weights (absolute and relative to terminal body weight); also recorded: decreased uterine weights
[4]; 12-week necropsy
  Vaginal epithelial degeneration, erosion, ulceration: no evidence of epithelial degeneration, erosion, or ulceration
[4]; 12 weeks
  Other parameters: no observed tamoxifen-related adverse effects on any of the other parameters
[5]; 30 mg dose, 39 weeks
  Adverse effects: no observed adverse effects
[5]; 30 mg/day, 26 weeks
  Females affected by uterine atrophy: Four of five
[5]; 30 mg/kg/day, 26 weeks
  Ovary microscopy: moderate to marked atrophy of the interstitial cells in the ovary
  Uterine and ovarian weights: Product-related uterine and ovarian weight decreases
  Uterus microscopy: mild to moderate uterine atrophy
[5]; 26 weeks, any treatment group
  Macroscopic changes: no IP related macroscopic changes
[5]; two studies, up to 39 weeks
  Systemic toxicity clinical findings: no observed clinical findings which would be suspicious for systemic toxicity
  Uterine or endometrial hyperplasia: no evidence of uterine or endometrial hyperplasia
[5]; vagina, uterus, ovary, up to 39 weeks
  Local genital tract findings: mostly organ atrophy
[6]; 3 months oral daily 20 mg tamoxifen
  Steady-state plasma concentration of NDT, range: 152 to 706 ng/mL
[6]; oral 20 mg dose
  Mean steady-state concentration of tamoxifen: 122 ng/mL
  Steady-state concentration of tamoxifen, range: 71-183
[6]; oral tamoxifen
  Peak plasma concentration of NDT, range: 10 to 20 ng/mL
[6]; single oral dose 20 mg
  Maximum plasma concentration of tamoxifen, range: 35 to 45 ng/mL
  Mean maximum plasma concentration of tamoxifen: 40 ng/mL
[7]; [10]
  Endometrial risk relative to general postmenopausal population: about two to three times that of the general postmenopausal population
  Risk of complex hyperplasia: 3%
  Risk of endometrial carcinoma: 2%
  Risk of simple hyperplasia: approximately 12%
[7]; premenopausal women, oral tamoxifen
  Risk of endometrial hyperplasia: no different than in the general premenopausal population

## CC/C(=C(\c1ccc(O)cc1)c1ccc(OCCNC)cc1)c1ccccc1 [endoxifen, N-desmethyl-4-hydroxytamoxifen]
[1]
  Potency relative to tamoxifen: approximately 100 ×

## CC/C(=C(\c1ccccc1)c1ccc(OCCNC)cc1)c1ccccc1 [NDT, N-desmethyltamoxifen]
[1]
  Systemic potency relative to tamoxifen: approximately 1.7 ×
